According to patent US7875284B2, “Methods of manufacturing and modifying taxane coatings for implantable medical devices” (Cook Incorporated, priority 2006, dated 2011):

How the values were obtained:
[1] = Elution of paclitaxel coatings in aqueous Heptakis-(2,6-di-O-methyl)-β-cyclodextrin (HCD); assay type: physicochemical; details: 0.5% w/w aqueous HCD, 25° C.; within about 1 hour
Source text: A preferred first elution medium is an aqueous solution comprising 0.1% to about 10% of a cyclodextrin. In one aspect, an elution profile may be obtained by contacting a coated medical device comprising a taxane therapeutic agent with an elution medium comprising a cyclodextrin. A cyclodextrin is a cyclic oligosaccharide formed from covalently-linked glucopyranose rings defining an internal cavity. The diameter of the internal axial cavity of cyclodextrins increases with the number of glucopyranose units in the ring. The size of the glucopyranose ring can be selected to provide an axial cavity selected to match the molecular dimensions of a taxane therapeutic agent. The cyclodextrin is preferably a modified beta-cyclodextrin, such as Heptakis-(2,6-di-O-methyl)-β-cyclodextrin (HCD). Suitable cyclodedtrin molecules include other β-cyclodextrin molecules, as well as γ-cyclodextrin structures.
Preferably, the cyclodextrin elution medium is formulated to provide distinguishable elution rates for different coating configurations, providing different elution profiles for different solid forms of a taxane therapeutic agent in the coating. […] For example, the elution medium may contact a medical device coating in a continuous flow configuration, or in a batch testing configuration.
Taxane therapeutic agents typically have different elution profiles in different elution media.

[2] = Elution of paclitaxel coatings in 0.3% sodium dodecyl sulfate (SDS); assay type: physicochemical; details: 0.3% SDS, 25° C.; FIGS. 7A-7B
Source text: Taxane therapeutic agents can have different elution profiles in different elution media. Another suitable elution medium for taxane therapeutic agent is sodium dodecyl sulfate (SDS).

[3] = for first order rate constants k1, k2 used for the dissolution formula: restated
Source text: The rate of dissolution of the taxane therapeutic agent can vary based on the elution medium being used and the solid form of the taxane therapeutic agent before dissolution. An elution profile can be obtained by any suitable method that allows for measurement of the release of the taxane therapeutic agent from the coating in a manner that can be measured with a desired level of accuracy and precision. In one embodiment, the elution profile of the release of a taxane therapeutic agent is obtained by contacting the medical device with a suitable elution medium. The elution medium can be formulated to simulate conditions present at a particular point of treatment within a body vessel. For example, an elution medium comprising porcine serum can be used to simulate implantation within a blood vessel. The release of taxane therapeutic agent from the medical device can be measured by any suitable spectrographic method, such as measurement of a UV absorption spectrum of the test fluid after contacting the medical device. Typically, the intensity of absorption at characteristic UV absorption peak, such as about 227 nm, can be correlated to the presence and amount of a taxane therapeutic agent in a sample. The amount of taxane therapeutic agent on the medical device can be determined by contacting the medical device with a suitable elution medium and detecting the amount of taxane therapeutic agent released from the medical device into the elution medium.
Preferably, the coated medical device can be contacted with a modified porcine serum elution medium at a constant flow rate of 16 mL/min for a desired period of time (e.g., 6-24 hours) sufficient to elute the aPTX present on the stent. The percentage of the taxane therapeutic agent dissolved can be measured as a function of time by monitoring the optical density of the first elution medium at 227 nm after contacting the coated stent, as described above. The modified porcine serum elution medium can be prepared by adding 0.104 mL of a 6.0 g/L Heparin solution to porcine serum at 37° C. and adjusting the pH to 5.6+/−0.3 using a 20% v/v aqueous solution of acetic acid. The elution rate profile of the taxane therapeutic agent can be measured for any desired period, and correlated to the amount of aPTX in the coating. Subsequently, the coated medical device is contacted with a second elution medium comprising 0.3% sodium dodecyl sulfate (SDS) at 25° C. a constant flow rate of 16 mL/min for a suitable time period to elute the dPTX present in the coating. The elution rate profile of the taxane therapeutic agent can be measured for any desired period, and correlated to the amount of aPTX (e.g., by elution in porcine serum) and dPTX (e.g., by subsequent elution in SDS) in the coating.

Row | SMILES | percentage of paclitaxel dissolved/released [1] | rate of elution compared with dihydrate paclitaxel [2] | time within which substantially all of the paclitaxel eluted ([3]; continuous flow of porcine serum, FIG. 14, Example 6) | half life of elution ([3]; pig, serum) | percentage of the coating dissolved ([3]; porcine serum, 37° C., single-layer coating on vascular stent, within about 6.5 hours (400 minutes)) [%] | first order rate constants k1, k2 used for the dissolution formula ([3]; porcine serum) [min⁻¹] | first order rate constant of elution ([3]; porcine serum (25° C.) as printed) | percentage of the coating eluted ([3]; porcine serum, 37° C., single-layer coating on vascular stent, after about 24 hours)
1 | CC(=O)O[C@H]1C(=O)[C@@]2(C)[C@H]([C@H](OC(=O)c3ccccc3)[C@]3(O)C[C@H](OC(=O)[C@H](O)[C@@H](NC(=O)c4ccccc4)c4ccccc4)C(C)=C1C3(C)C)[C@]1(OC(C)=O)CO[C@@H]1C[C@@H]2O [amorphous paclitaxel, paclitaxel] | about 80% | more rapid | less than 5 hours | about 30 minutes | 100 | 0.0244 | – | –
2 | CC(=O)O[C@H]1C(=O)[C@@]2(C)[C@H]([C@H](OC(=O)c3ccccc3)[C@]3(O)C[C@H](OC(=O)[C@H](O)[C@@H](NC(=O)c4ccccc4)c4ccccc4)C(C)=C1C3(C)C)[C@]1(OC(C)=O)CO[C@@H]1C[C@@H]2O [dihydrate paclitaxel, paclitaxel] | less than 20% | – | – | – | – | 0.0003 | about 0.0003 min^−1 | less than 40%
